Laboratory results taken from patent US9376391B2, “Difluoromethyl-nicotinic-tetrahydronaphthyl carboxamides as fungicides” (BAYER CROPSCIENCE AKTIENGESELLSCHAFT, priority 2012, dated 2016).

What was measured:
[1] = log P by HPLC on reversed phase columns (EEC directive 79/831 Annex V.A8); assay type: physicochemical; conditions: HPLC/LC-MS at pH 2.7, 0.1% formic acid in water / acetonitrile, gradient 10% to 95%
Puccinia recondita = test: In vivo preventive test on Puccinia recondita (brown rust on wheat); conditions: wheat, spray, graded 12 days after contamination vs control plants
Protocol: In Vivo Preventive Test on Puccinia recondita (Brown Rust on Wheat) […] Wheat plants (“Scipion” variety), sown in starter cups on a 50/50 peat soil-pozzolana substrate and grown at 22° C., are treated at the 1-leaf stage (10 cm height) by spraying with the active ingredient prepared as described above. Plants, used as controls, are treated with the mixture of acetone/tween/DMSO/water not containing the active material. After 24 hours, the plants are contaminated by spraying the leaves with an aqueous suspension of Puccinia recondita spores (100 000 spores per ml). The spores are collected from an infected plant and are suspended in water containing 2.5 ml/1 of Tween 80 at 10%. The contaminated wheat plants are incubated for 24 hours at 20° C. and at 100% relative humidity, and then for 10 days at 20° C. and at 70-80% relative humidity. Grading (% of efficacy) is carried out 12 days after the contamination, in comparison with the control plants.

Uromyces appendiculatus = test: In vivo preventive test on Uromyces appendiculatus (bean rust); conditions: preventive spray, bean plants, grading 11 days after contamination
Protocol: In Vivo Preventive Test on Uromyces appendiculatus (Bean Rust) […] Bean plants (“Saxa” variety), sown in starter cups on a 50/50 peat soil-pozzolana substrate and grown at 24° C., are treated at the 2-leaf stage (9 cm height) by spraying with the active ingredient prepared as described above. Plants, used as controls, are treated with the mixture of acetone/tween/DMSO/water not containing the active material. After 24 hours, the plants are contaminated by spraying the leaves with an aqueous suspension of Uromyces appendiculatus spores (150 000 spores per ml). The spores are collected from infected plants and are suspended in water containing 2.5 ml/1 of Tween 80 at 10%. The contaminated bean plants are incubated for 24 hours at 20° C. and at 100% relative humidity, and then for 10 days at 20° C. and at 70-80% relative humidity. Grading (% of efficacy) is carried out 11 days after the contamination, in comparison with the control plants.

Sphaerotheca fuliginea = test: In vivo preventive test on Sphaerotheca fuliginea (powdery mildew on cucurbits); conditions: 100 ppm, preventive spray, gherkin plants, grading 12 days after contamination
Protocol: In Vivo Preventive Test on Sphaerotheca fuliginea (Powdery Mildew on Cucurbits)
The active ingredients tested are prepared by homogenization in a mixture of acetone/tween/DMSO and then diluted with water to obtain the desired active material concentration.
Gherkin plants (“Vert petit de Paris” variety), sown in starter cups on a 50/50 peat soil-pozzolana substrate and grown at 24° C., are treated at the Z11 cotyledon stage by spraying with the active ingredient prepared as described above. Plants, used as controls, are treated with the mixture of acetone/tween/DMSO/water not containing the active material.
After 24 hours, the plants are contaminated by spraying the cotyledons with an aqueous suspension of Sphaerotheca fuliginea spores (100 000 spores per ml). The spores are collected from infected plants. The contaminated gherkin plants are incubated at about 20° C. and at 70-80% relative humidity.
Grading (% of efficacy) is carried out 12 days after the contamination, in comparison with the control plants.

[2] = Table 2, amines of formula (III-a)

SMILES | logP^[a] ([1]; Table 1, formula (I)) | Eff. % (Puccinia recondita; dose 500 ppm) [%] | also measured
CC1CC(C)(C)c2c(Cl)ccc(NC(=O)c3cccnc3C(F)F)c21 (stereo not shown) [Example 16] | 3.73^[a] | – | –
CC1CC(C)(C)c2cccc(NC(=O)c3c(C(F)F)ccnc3C(F)F)c21 (stereo not shown) [Example 28] | 3.79^[a] | – | –
Cc1cnc(C(F)F)c(C(=O)Nc2cccc3c2C(C(C)C)OC3(C)C)c1 (racemic) [Example 75] | 3.00^[a] | – | –
CC1OC(C)(C)c2cccc(NC(=O)c3ccc(Cl)nc3C(F)F)c21 (racemic) [Example 24] | 2.77^[a] | 89 | Eff. % (Uromyces appendiculatus; 500 ppm): 100%
CCC1OC(C)(C)c2cccc(NC(=O)c3cc(C)cnc3C(F)F)c21 (racemic) [Example 73] | 2.64^[a] | – | Eff. % (Puccinia recondita; dose 100 ppm): 78%
CC1CC(C(C)(C)C)c2cccc(NC(=O)c3cccnc3C(F)F)c21 (mixture of isomers) [Example 93] | 3.94^[a] | – | –
CCC1(CC)c2cccc(NC(=O)c3cccnc3C(F)F)c2CC1C (stereo not shown) [Example 91] | 3.99^[a] | – | Eff. % (Puccinia recondita; dose 100 ppm): 94%; Eff. % (Sphaerotheca fuliginea): 98%; Eff. % (Uromyces appendiculatus; 100 ppm): 100%
Cc1cnc(C(F)F)c(C(=O)Nc2cccc3c2C(C)C(C)C3(C)C)c1 (stereo not shown) [Example 35] | 3.79^[a] | 93 | –
CON=C1CCc2c(NC(=O)c3cccnc3C(F)F)cccc21 [Example 5] | 2.15^[a] | – | –
CC1c2c(cccc2NC(=O)c2ccc(Cl)nc2C(F)F)CC1(C)C (stereo not shown) [Example 87] | 3.96^[a] | – | –
Cc1cnc(C(F)F)c(C(=O)Nc2cccc3c2CC(C(C)C)C3(C)C)c1 (racemic) [Example 44] | – | 83 | Eff. % (Uromyces appendiculatus; 500 ppm): 93%
Cc1cnc(C(F)F)c(C(=O)Nc2cccc3c2C(C)C(C)(C)C3)c1 (stereo not shown) [Example 86] | 3.59^[a] | – | –
CC(C)(C)CC1CCc2cccc(N)c21.Cl (stereo not shown) [III-a-8] | – | – | logP^[a] [1, 2]: 4.04^[a]
CCC1OC(C)(C)c2cccc(NC(=O)c3ccc(Cl)nc3C(F)F)c21 (racemic) [Example 74] | 3.09^[a] | – | Eff. % (Puccinia recondita; dose 100 ppm): 72%
CCON=C1CC(C)c2c(NC(=O)c3cc(C)cnc3C(F)F)cccc21 (racemic) [Example 50] | 2.99^[a] | 94 | Eff. % (Uromyces appendiculatus; 500 ppm): 100%
Cc1cnc(C(F)F)c(C(=O)Nc2cccc3c2C(C)OC3(C)C)c1 (stereo not shown) [Example 22] | 2.37^[a] | 83 | –
CC1CC(C)(C)c2ccc(F)c(N)c21 (stereo not shown) [III-a-10] | – | – | logP^[a] [1, 2]: 3.71^[a]
CC(C)C1Cc2c(NC(=O)c3ccc(Cl)nc3C(F)F)cccc2C1(C)C (racemic) [Example 45] | 4.77^[a] | 89 | Eff. % (Uromyces appendiculatus; 500 ppm): 88%
CC1CC(C)(C)c2c(F)ccc(NC(=O)c3ccc(Cl)nc3C(F)F)c21 (stereo not shown) [Example 19] | 4.09^[a] | 100 | Eff. % (Uromyces appendiculatus; 500 ppm): 79%
CCC1(CC)OC(C)c2c(NC(=O)c3cc(C)cnc3C(F)F)cccc21 (stereo not shown) [Example 26] | 3.15^[a] | – | –
CC(C)C1Cc2c(NC(=S)c3ccc(Cl)nc3C(F)F)cccc2C1(C)C (stereo not shown) [Example 66] | 5.11^[a] | – | Eff. % (Puccinia recondita; dose 100 ppm): 98%; Eff. % (Uromyces appendiculatus; 100 ppm): 85%
CC1(C)OCc2c(NC(=O)c3cccnc3C(F)F)cccc21 [Example 17] | 2.01^[a] | 100 | Eff. % (Uromyces appendiculatus; 500 ppm): 100%
Cc1cnc(C(F)F)c(C(=O)Nc2cccc3c2CC(C)(C)C3C)c1 (stereo not shown) [Example 63] | 3.65^[a] | 83 | –
Cc1cnc(C(F)F)c(C(=O)Nc2cccc3c2C(C)CC32CC2)c1 (racemic) [Example 54] | 3.31^[a] | – | –
CC1CC(=C(Cl)Cl)c2cccc(N)c21.Cl (stereo not shown) [III-a-4] | – | – | logP^[a] [1, 2]: 3.60^[a]
Cc1cnc(C(F)F)c(C(=S)Nc2cccc3c2CC(C(C)C)C3(C)C)c1 (stereo not shown) [Example 67] | 4.74^[a] | – | Eff. % (Puccinia recondita; dose 100 ppm): 89%; Eff. % (Uromyces appendiculatus; 100 ppm): 100%
CON=C1CC(C)c2c(NC(=O)c3cc(C)cnc3C(F)F)cccc21 (stereo not shown) [Example 29] | 2.61^[a] | – | –

SMILES | logP^[a] ([1]; Table 1, formula (I)) | Eff. % (Puccinia recondita; dose 500 ppm) [%] | also measured
Cc1cnc(C(F)F)c(C(=O)Nc2cccc3c2C(C)CC3(C)C)c1 (stereo not shown) [Example 21] | 3.55^[a] | 72 | Eff. % (Uromyces appendiculatus; 500 ppm): 88%
CC1(C)CC(C(Cl)Cl)c2c(N)cccc21 (stereo not shown) [III-a-7] | – | – | logP^[a] [1, 2]: 4.39^[a]
CC1(C)CC(C(F)F)c2c(N)cccc21 (stereo not shown) [III-a-9] | – | – | logP^[a] [1, 2]: 2.75^[a]
Cc1cnc(C(F)F)c(C(=S)Nc2cccc3c2C(C)CC32CC2)c1 (racemic) [Example 68] | 3.68^[a] | – | Eff. % (Puccinia recondita; dose 100 ppm): 100%
CC1CC2(CC2)c2cccc(NC(=O)c3ccc(Cl)nc3C(F)F)c21 (racemic) [Example 58] | 3.73^[a] | 81 | Eff. % (Uromyces appendiculatus; 500 ppm): 95%
CCC1(C)CC(C)c2c(NC(=O)c3ccc(Cl)nc3C(F)F)cccc21 (mixture of isomers) [Example 83] | 4.36^[a] | – | Eff. % (Puccinia recondita; dose 100 ppm): 83%; Eff. % (Uromyces appendiculatus; 100 ppm): 72%
CC(C)CC1CCc2c(NC(=O)c3cccnc3C(F)F)cccc21 (racemic) [Example 41] | 3.94^[a] | 98 | Eff. % (Uromyces appendiculatus; 500 ppm): 100%
CCC1OC(CC)(CC)c2cccc(NC(=O)c3cc(C)cnc3C(F)F)c21 (racemic) [Example 72] | 3.52^[a] | – | –
CC1CC(=CCl)c2cccc(NC(=O)c3cccnc3C(F)F)c21 (stereo not shown) [Example 98] | 3.71^[a] | – | –
CC1CC(C)(C)c2ccc(F)c(NC(=O)c3cccnc3C(F)F)c21 (stereo not shown) [Example 100] | 3.26^[a] | – | –
CC(C)(C)CC1CC(C)(C)c2cccc(N)c21 (stereo not shown) [III-a-6] | – | – | logP^[a] [1, 2]: 4.98^[a]
Cc1cnc(C(F)F)c(C(=O)Nc2cccc3c2CC(C)(C)C3)c1 [Example 48] | 3.35^[a] | – | –
CCC1Cc2c(NC(=S)c3cc(C)cnc3C(F)F)cccc2C1(C)C (stereo not shown) [Example 70, 2-(difluoromethyl)-N-(2-ethyl-1,1-dimethyl-2,3-dihydro-1H-inden-4-yl)-5-methylpyridine-3-carbothioamide] | – | – | chromatographic logP ([1]; reversed phase HPLC columns, Table 1, formula (I)): 4.41; Eff. % (Puccinia recondita; dose 100 ppm): 98%; Eff. % (Uromyces appendiculatus; 100 ppm): 100%
CC(C)(C)CC1CC(C)(C)c2cccc(NC(=O)c3cccnc3C(F)F)c21 (stereo not shown) [Example 95] | 4.54^[a] | – | –
CC1CC(=C(Cl)Cl)c2cccc(NC(=O)c3cccnc3C(F)F)c21 (stereo not shown) [Example 99] | 3.13^[a] | – | –
CCCCON=C1CC(C)c2c(NC(=O)c3cc(C)cnc3C(F)F)cccc21 (racemic) [Example 53] | 3.46^[a] | – | –
CCCC1CC(C)c2c(NC(=O)c3cccnc3C(F)F)cccc21 (stereo not shown) [Example 89] | 3.79^[a] | – | –
Cl.Nc1cccc2c1C(=C(Cl)Cl)CC2 [III-a-3] | – | – | logP^[a] [1, 2]: 3.42^[a]
CC1(C)CC(C(F)F)c2c(NC(=O)c3cccnc3C(F)F)cccc21 (stereo not shown) [Example 94] | 3.15^[a] | – | –
CCON=C1CCc2c(NC(=O)c3cccnc3C(F)F)cccc21 [Example 8] | 2.54^[a] | 78 | –
CC1CC(C)(C)c2cccc(NC(=O)c3ccc(Cl)nc3C(F)F)c21 (racemic) [Example 18] | 3.99^[a] | 89 | –
CC1(C)CCc2c(NC(=O)c3cccnc3C(F)F)cccc21 [Example 92] | 3.08^[a] | – | –
O=C(Nc1cccc2c1C(=C(Cl)Cl)CC2)c1cccnc1C(F)F [Example 97] | 2.96^[a] | – | –
CCC1(CC)Cc2c(NC(=O)c3cc(C)cnc3C(F)F)cccc2C1C (stereo not shown) [Example 61] | 4.39^[a] | 78 | –
CC1(C)CC(C(Cl)Cl)c2c(NC(=O)c3cccnc3C(F)F)cccc21 (stereo not shown) [Example 96] | 3.97^[a] | – | –
CC1CC(C)(C)c2cccc(NC(=O)c3cc(Cl)cnc3C(F)F)c21 (racemic) [Example 55] | 4.06^[a] | 72 | –
